Data set [1] relates to LP-BM5. It is filed as in vivo, C57BL/6 mice. Conditions: at 10 weeks after infection. An excerpt:
LP-BM5 virus was provided by Robert Yetter (Veternas Administration Hospital, Baltimore, MD) and was maintained in a persistently infected SC- 1 cell line as described (Hosier D.E., Yetter R.A., Morse H.C. III, "Functional T lymphocytes are required for a murine retrovirus induced immunodeficiency disease (MAIDS)", J. Exp. Med. 1987; 165:1737-42). C57BL/6 female mice were purchased from Nossan, Milan, Italy and were used at 5 weeks of age. Animals were infected by means of two successive intraperitoneal injections at 24-hr intervals. In the experiments reported three different virus preparations were used.
Mice were housed at 22±1°C with a 12-hr light-dark cycle, 60±5% humidity, and 12 air changes/hr.
First, the efficacy of 2-fluoro-ara-AMP (F-araAMP, Fludara) in inhibiting murine AIDS (MAIDS), a disease characterized by a lymphoproliferative disorder (lymphadenopathy and splenomegaly), associated with severe immunodeficiency and hypergammaglobulinemia, was evaluated. The disease develops in some strains of mice (C57BL/6) that are infected with a murine leukemia virus mixture termed LP-BM5. In the first preliminary experiments (after about 4 months from infection) LP-BMS infected animals were treated with three different concentrations of F-ara-AMP: 0.065 mg/mouse, 0.325 mg/mouse, 0.650 mg/mouse. The animals of each group were treated intraperitoneally for 3 days a week and for 3 weeks. At the end of the treatment animals were killed and splenomegaly, lymphadenopathy and hypergammaglobulinemia were evaluated.
Infected mice after 7 weeks from infection were treated intraperitoneally with Fludara as follows: • 1. 0.65 mg/mouse once a day for 4 days a week (total dose 7.8 mg/mouse); • 2. 0.65 mg/mouse twice a day for 5 days a week (total dose 19.5 mg/mouse); • 3. […]

In data set [2] the test system is BM5d proviral DNA. Put plainly: PCR analysis of BM5d proviral DNA in spleen, lymph node and bone marrow. In kind it is in vivo, C57BL/6 mice. Conditions: at 10 weeks after infection. An excerpt: The following oligonucleotide primers were used for the amplification of a 141-bp gag gene of defective virus genome (BM5d); 5' primer, 5'-AACCTTCCTCCTCTGCCA-3' (sense) corresponding to nucleotides 1456-1473 and 3' primer, 5'-ACCACCTCTCGGGCTTTC-3' (antisense) corresponding to nucleotides 1579-1596 of the BM5d genome (Chat topadhyay SK, Sengupta D.N., FredricksonT.N., Morse H.C. III, Hartley J.W., "Characteristics and contributions of defective, ecotropic and mink cell focus-inducing viruses in a retrovirus induced immunodeficiency syndrome of mice.", J..Virol. 1991; 65: 4232-41.). A second pair or oligonucleotide primers was used for amplification of 203-bp of the mouse glucose-6-phosphate dehydrogenase (G6PD) gene. This amplification served as an internal control (endogenous standard) for evaluation of the relative BM5d proviral DNA. The nucleotide primers for the amplification were as follows: 5' primer, 5'-[…]-3' (sense) and 3' primer, 5'-[…]-3' (antisense) (Kurdi-Haidar B., Mason P.J., Berrebi A., et al., "Origin and spread of the glucose-6-phosphate dehydrogenase variant (G6PD-Mediterranean) in the Middle East.", Am. J. Hum. Genet. 1990; 47:1013-19.).
Probe D30, which was derived from the 137-bp Smal-Xhol p12 gag fragment of the defective virus genome (DU5H), was kindly provided by P. Jolicoeur (Montreal, Canada) (Aziz D.C., Hanna Z., Jolicoeur P., "Severe immunodeficiency disease induced by a defective murine leukemia virus.", Nature 1989; 338: 505-08).
Total cellular DNA was isolated from the spleens, lymph nodes and bone marrow of uninfected, infected and infected/treated mice by the sodium iodide isopropanol method.
PCR amplifications were performed in a 25 µl final volume using the Perkin Elmer GeneAMP kit (1 mM MgCl2, 2.5 U AmpliTag) with 0.3 µg total cellular DNA and 20 pmol of each primer.
PCR reaction were carried out for 37 cycles at 95°C for 30 sec, 58°C for 30 sec and 72°C for 30 sec with a final extension at 72°C for 10 min.
Products were analyzed by electrophoresis on agarose gel, blotted and hybridized with either the ^32P-labeled D30 or G6PD probe.
The intensity of radiolabeled bands was analyzed and quantified in a GS-250 Molecular Imager™ (Bio-Rad, Hercules, CA, USA). For BM5d proviral DNA detection the relative integration was determined by dividing the intensity of the BM5d bands by the intensity of G6PD bands (Fraternale A., Casabianca A., Rossi L., et al., "Inhibition of murine AIDS by combination of AZT and dideoxycytidine 5'-triphosphate.", J. Acquir. Imm. Def Syndr. and Hum. Retrovir. 1996; 12:164-73). The percentages of inhibition were referred to the infected mice.

Data set [3] in a line: Stability in drinking water. In kind it is physicochemical. The conditions noted are these: 0.25 mg/ml, room temperature, changed every 3 days. The method, then: AZT (Sigma) was administered ad libitum in the drinking water at a concentration of 0.25 mg/ml. AZT was stable in the drinking water at room temperature and was changed every 3 days.
Setting [4] is: treatment a: AZT 250 mg/l in drinking water for 6 weeks.
Where [5] appears, read: treatment b: AZT 250 mg/l in drinking water for 10 weeks.

SMILES strings stand for the structures. Read-outs that look alike come from different tables or passages of the source.

In the case of `Cc1cn([C@H]2C[C@H](N=[N+]=[N-])[C@@H](CO)O2)c(=O)[nH]c1=O` [AZT, 3'-Azido-3'-desoxythymidin], in data set [1] (setting [4]), the “Lymph node w.” value was found to be 1.060 ± 0.240 g and the “Spleen w.” value came out at 0.520 ± 0.070 g. Moreover, in data set [1] (setting [5]), the “Lymph node w.” value was determined as 0.550 ± 0.330 g and the “Spleen w.” value worked out at 0.580 ± 0.150 g. In addition, in data set [2] (setting [4]), the “bone marrow, BM5d proviral DNA copy number (E)” value is on record as 28,500±3,535 Proviral DNA molecules per 0.3 µg of total cellular DNA; the “bone marrow, inhibition of BM5d (% vs. Infected) (F)” value is given as 4.135±5.847%; the “lymph node, BM5d proviral DNA copy number (C)” value was 30,966±7,169 Proviral DNA molecules per 0.3 µg of total cellular DNA; the “lymph node, inhibition of BM5d (% vs. Infected) (D)” value came out at 85.89±3.26 %. Also, in data set [2] (setting [4]), the “spleen, BM5d proviral DNA copy number (A)” value was 135,000±20,000 Proviral DNA molecules per 0.3 µg of total cellular DNA and the “spleen, inhibition of BM5d (% vs. Infected) (B)” value came out at 15.14±9.60%. In data set [2] (setting [5]), the “bone marrow, BM5d proviral DNA copy number (E)” value is recorded as 13,761±8,766 Proviral DNA molecules per 0.3 µg of total cellular DNA; the “bone marrow, inhibition of BM5d (% vs. Infected) (F)” value is reported as 51.51±30.83 %; the “spleen, BM5d proviral DNA copy number (A)” value is 39,669±19,026 Proviral DNA molecules per 0.3 µg of total cellular DNA; the “spleen, inhibition of BM5d (% vs. Infected) (B)” value was found to be 73.30±12.53 %. Moreover, the “stability in the drinking water” value in data set [3] is “stable”.

(Values after patent publication EP0987025A1, “Pharmaceitical composition or composition package containing a pyrimidine nucleoside analogue and a purine nucleoside analogue” (priority 1998, dated 2000).)
